Measurements as given in patent US10189862B2, “Phenothiazine-pyridine compounds and uses thereof” (The Chinese University of Hong Kong, priority 2016, dated 2019).
Like-named read-outs stand apart in the source and are kept apart here.

What was measured:
HT29 cell line [1] = assay: Dark toxicity, MTT assay; format: cell-based; conditions: Homo sapiens, HT-29; HT29; 24 h under dark, MTT; read-out: IC50 DK
Experimental: (§1) Cell lines and culture conditions: A549, HT29, MCF-7, MDA-MB-231 cell lines were maintained in RPMI1640 supplemented with fetal bovine serum (10%) and penicillin-streptomycin solution (1%), and WI38 cells were maintained in DMEM supplemented with fetal bovine serum (10%) and penicillin-streptomycin solution (1%). Approximately 1×10^4 (for A549, HT29, MCF-7, MDA-MB-231) or 1.5×10^4 (for WI38) cells per well were seeded in 96-well plate and incubated overnight light at 37° C. in a humidified atmosphere with 5% CO2.
Dark toxicity: Cells were incubated with different concentrations of photosensitive drug for 24 h in dark, and the cell viabilities were determined by MTT assay

bacteria = conditions: concentration of 10 uM; cited from earlier work
HT29 cell line [2] = assay: Photocytotoxicity (PDT), MTT assay; format: cell-based; conditions: Homo sapiens, HT-29, light or radiation study; HT29; 1 h incubation, 630 nm LED light 30 s, 3.2 J/cm^2, 24 h, MTT; read-out: IC50 PDT
Experimental: as §1
Photocytotoxicity: Cells were incubated with different concentrations of photosensitive drug for 1 h in the dark, then the medium in the well was sucked by a syringe, and washed by PBS. Then a solution of new medium was added, and illuminated by light. After irradiation, the cells were incubated under dark at 37° C. for another 24 h, and the cell viabilities were determined by MTT assay.

HT29 cells = assay: Intracellular ROS generation, DCFH-DA probe, flow cytometry; format: cell-based; conditions: HT29, 0.5 uM, light irradiation; order 14≈23>8>18>15>24>>16>20>17≈19≈22>21>>MB
Description: In order to further mimic the biological environment, we measured the intracellular reactive oxygen species (ROS) generation efficiency of these phenothiazine-pyridine compounds by flow cytometry. We employed HT29 cell line as cell model, and 2,7-dichlorofluorescin diacetate (DCFH-DA) as the intracellular ROS indicator, to determine the fluorescence intensity of 2,7-dichlorofluorescin (DCF), which was oxidized from DCFH-DA by ROS. The experiments were repeated for three times using DCFH-DA as control. For comparison, methylene blue was used as positive control. The data were analyzed by GraphPad Prism 6, the drug concentrations are all at 0.5 uM. […] In addition, the intracellular ROS generation efficiency is different from that measured in organic solvent, which may be attributed to the different cellular uptake amount for various compounds and the generation of some other ROS species other than ^1O2 in cells ([…] mechanism).

E. coli = conditions: 10 uM, 30 min incubation, 24 J/cm^2; cited from earlier work
HT29 cell line [3] = conditions: 664 laser and 3 J/cm^2 light dose (2008); read-out: IC50 PDT, Stanley B. Brown reported value; cited from earlier work
S. aureus = conditions: 10 uM, 30 min drug-incubation, 60 J/cm^2; cited from earlier work

| Compound | IC50 (HT29 cell line [1]) [µM] | dark toxicity (bacteria) | IC50 (HT29 cell line [2]) [µM] | intracellular ROS generation efficiency (HT29 cells) | log 10-reduction (E. coli) [log 10-reduction] | IC50 (HT29 cell line [3]) [µM] | log 10-reduction (S. aureus) [log 10-reduction] |
| --- | --- | --- | --- | --- | --- | --- | --- |
| CN(C)c1ccc2nc3ccc(=[N+](C)C)cc-3sc2c1 [MB, methylene blue] | > 10 | obvious dark toxicity | 9.2 | almost no ROS generation | 0.5 | 88.5 |  |
| CCCCN(CCCC)c1ccc2nc3ccc(=[N+](CCCC)CCCC)cc-3sc2c1.[Br-] [PPA904] |  | obvious dark toxicity |  |  | 3 |  | 4 |
